# Test system: moderate-to-severe chronic spontaneous urticaria (CSU)
# Test: Phase 2 CSU study: urticaria activity score over 7 days (UAS7)
# Format: in vivo, human
# Parameters: key to UAS7 Median / UAS7 Change from baseline Median / UAS7 change from baseline, Q1 / UAS7 change from baseline, Q3 / UAS7 change from baseline, Max / UAS7 Change from baseline LS Mean (SE): UAS7 points; daily UAS score ranges 0–6 points/day, over 7 days
# From the text: The study comprises a 12 week, randomized, double-blind, placebo-controlled, multi-center, dose-ranging efficacy and safety phase, followed by a 40 week open label extension (OLE) phase (see FIG. 1). The study consists of three phases and an optional OLE phase. […] Clinically, CSU is characterized by the spontaneous and recurrent appearance of pruritic hives. The proposed primary endpoints were the UAS7 at Week 12 in EU and EU reference countries and the ISS7 in the US. Regardless of where a participant was from, all assessments were the same. The UAS7 score is a composite score containing both the HSS7 and the ISS7. This allowed a global assessment of the two key components of urticaria: hives and itch. […] The UAS is a validated PRO measure. […] The daily UAS scores range from 0 to 6 point/day. […] Patients were to complete the UAS using the e-diary. […] The following secondary endpoints were to be analyzed using the same approach as for the primary endpoint: • Change from baseline in UAS7 at Week 4 • Change from baseline in UAS7 at Week 12 (for US and US reference countries) • Change from baseline in ISS7 at Week 12 (except US and US reference countries) • Change from baseline in HSS7 at Week 12 The following responder secondary endpoints were to be analyzed using the Cochran-Mantel-Haenszel test adjusted by region: • Proportion of participants with UAS7<6 at Week 12 • Proportion of participants with UAS7=0 at Week 12 Participants who received selected prohibited medications and/or rescue medications were to be considered as non-responders for time points after the medication usage. For other participants, all available data including those collected during the off-treatment period were to be used to determine the responder/non-responder status. Missing data were to be considered as non-responders.
# [1] = Week 10, 400 mg TID, ITT population
# [2] = Week 10, 400 mg TID, Omalizumab-Naïve
# [3] = Week 10, 400 mg TID, Prior Omalizumab Use
# [4] = Week 10, 400 mg TID, omalizumab-naive participants
# [5] = Week 11, 400 mg BID, ITT population
# [6] = Week 11, 400 mg BID, Omalizumab-Naïve
# [7] = Week 11, 400 mg BID, Prior Omalizumab Use
# [8] = Week 11, 400 mg BID, omalizumab-naive participants
# [9] = Week 11, 400 mg QPM, ITT population
# [10] = Week 11, 400 mg QPM, Omalizumab-Naïve
# [11] = Week 11, 400 mg QPM, Prior Omalizumab Use
# [12] = Week 11, 400 mg QPM, omalizumab-naive participants
# [13] = Week 11, 400 mg TID, ITT population
# [14] = Week 11, 400 mg TID, Omalizumab-Naïve
structure (smiles),measurement,setting,value
"CC(C)(C=C(C#N)C(=O)N1CCC[C@@H](n2nc(-c3ccc(Oc4ccccc4)cc3F)c3c(N)ncnc32)C1)N1CCN(C2COC2)CC1 [rilzabrutinib, (R)-2-[3-[4-amino-3-(2-fluoro-4-phenoxy-phenyl)pyrazolo[3,4-d]pyrimidin-1-yl]piperidine-1-carbonyl]-4-methyl-4-[4-(oxetan-3-yl)piperazin-1-yl]pent-2-enenitrile]","Non-responder, UAS7 reduction from baseline of 10 points or more",[1],14 (34.1) n (%)
same,"OR for rilzabrutinib vs. placebo, UAS7 reduction of 10 points or more",[1],2.018
same,"RRD (%) for rilzabrutinib vs. placebo, UAS7 reduction of 10 points or more",[1],15.7 %
same,"Responder, UAS7 reduction from baseline of 10 points or more",[1],27 (65.9) n (%)
same,UAS7 Change from baseline Median,[2],−20.00
same,UAS7 Mean (SD),[2],12.61 (9.89)
same,UAS7 Median,[2],12.83
same,UAS7 Percent change from baseline Mean (SD),[2],−58.08 (31.82) %
same,UAS7 Percent change from baseline Median,[2],−59.49%
same,UAS7 Change from baseline Mean (SD),[3],−25.19 (15.27)
same,UAS7 Change from baseline Median,[3],−25.08
same,UAS7 Mean (SD),[3],7.83 (11.43)
same,UAS7 Median,[3],4.00
same,UAS7 Percent change from baseline Mean (SD),[3],−73.42 (30.92) %
same,UAS7 Percent change from baseline Median,[3],−84.09%
same,"Non-responder, UAS7 reduction from baseline of 10 points or more",[4],12 (34.3) n (%)
same,"OR for rilzabrutinib vs. placebo, UAS7 reduction of 10 points or more",[4],2.327
same,"RRD (%) for rilzabrutinib vs. placebo, UAS7 reduction of 10 points or more",[4],19.8 %
same,"Responder, UAS7 reduction from baseline of 10 points or more",[4],23 (65.7) n (%)
same,"Non-responder, UAS7 reduction from baseline of 10 points or more",[5],19 (46.3) n (%)
same,"OR for rilzabrutinib vs. placebo, UAS7 reduction of 10 points or more",[5],1.009
same,"RRD (%) for rilzabrutinib vs. placebo, UAS7 reduction of 10 points or more",[5],0.2 %
same,"Responder, UAS7 reduction from baseline of 10 points or more",[5],22 (53.7) n (%)
same,UAS7 Change from baseline Mean (SD),[6],−14.86 (11.83)
same,UAS7 Change from baseline Median,[6],−19.00
same,UAS7 Mean (SD),[6],15.06 (13.80)
same,UAS7 Percent change from baseline Mean (SD),[6],−51.82 (39.20) %
same,UAS7 Percent change from baseline Median,[6],−57.14%
same,UAS7 Change from baseline Mean (SD),[7],−20.43 (19.00)
same,UAS7 Change from baseline Median,[7],−25.00
same,UAS7 Mean (SD),[7],11.57 (15.45)
same,UAS7 Median,[7],2.00
same,UAS7 Percent change from baseline Mean (SD),[7],−59.15 (51.57) %
same,UAS7 Percent change from baseline Median,[7],−92.59%
same,"Non-responder, UAS7 reduction from baseline of 10 points or more",[8],16 (45.7) n (%)
same,"OR for rilzabrutinib vs. placebo, UAS7 reduction of 10 points or more",[8],1.183
same,"RRD (%) for rilzabrutinib vs. placebo, UAS7 reduction of 10 points or more",[8],4.4 %
same,"Responder, UAS7 reduction from baseline of 10 points or more",[8],19 (54.3) n (%)
same,"Non-responder, UAS7 reduction from baseline of 10 points or more",[9],19 (50.0) n (%)
same,"OR for rilzabrutinib vs. placebo, UAS7 reduction of 10 points or more",[9],0.945
same,"RRD (%) for rilzabrutinib vs. placebo, UAS7 reduction of 10 points or more",[9],−1.3 %
same,"Responder, UAS7 reduction from baseline of 10 points or more",[9],19 (50.0) n (%)
same,UAS7 Change from baseline Mean (SD),[10],−11.28 (9.60)
same,UAS7 Change from baseline Median,[10],−11.00
same,UAS7 Mean (SD),[10],21.17 (11.16)
same,UAS7 Median,[10],20.00
same,UAS7 Percent change from baseline Mean (SD),[10],−35.34 (30.18) %
same,UAS7 Percent change from baseline Median,[10],−34.19%
same,UAS7 Change from baseline Mean (SD),[11],−23.00 (NC)
same,UAS7 Change from baseline Median,[11],−23.00
same,UAS7 Mean (SD),[11],18.00 (NC)
same,UAS7 Median,[11],18.00
same,UAS7 Percent change from baseline Mean (SD),[11],−56.10 (NC) %
same,UAS7 Percent change from baseline Median,[11],−56.10%
same,"Non-responder, UAS7 reduction from baseline of 10 points or more",[12],19 (51.4) n (%)
same,"OR for rilzabrutinib vs. placebo, UAS7 reduction of 10 points or more",[12],0.946
same,"RRD (%) for rilzabrutinib vs. placebo, UAS7 reduction of 10 points or more",[12],−1.3 %
same,"Responder, UAS7 reduction from baseline of 10 points or more",[12],18 (48.6) n (%)
same,"Non-responder, UAS7 reduction from baseline of 10 points or more",[13],14 (34.1) n (%)
same,"OR for rilzabrutinib vs. placebo, UAS7 reduction of 10 points or more",[13],1.624
same,"RRD (%) for rilzabrutinib vs. placebo, UAS7 reduction of 10 points or more",[13],10.3 %
same,"Responder, UAS7 reduction from baseline of 10 points or more",[13],27 (65.9) n (%)
same,UAS7 Change from baseline Median,[14],−17.00
same,UAS7 Median,[14],13.00
same,UAS7 Percent change from baseline Mean (SD),[14],−56.01 (34.22) %
same,UAS7 Percent change from baseline Median,[14],−60.00%
